Experimental data as given in patent US9428815B2, “HIV-1 reverse transcriptase codon deletion and its use in the management and treatment of HIV infections” (Emory University, priority 2007, dated 2016).

Key:
[1] = target: T1, RT from virally-derived S68del (Human immunodeficiency virus type 1 group M subtype B, UniProt P03367, DEL667-667); experiment: Heteropolymeric-DNA colorimetric RT assay with 3.2 mM ATP, particle-derived S68del RT; assay type: biochemical, HIV-1; settings: for resistance of S68del RT (in words): particle-derived RT, 3.2 mM ATP, FIG. 5; for fold increase in resistance: virally-derived S68del RT, relative to HIVLAI, enzymatic assay
T1 construct: The resistance of RT derived from S68del and M184V particles; made in house; host or cells: crude virus pellet; the virus was passaged in human PBM cells
From the text: (§1) The principle and performance of the non-radioactive RT assay has been described (Lennerstrand et al., Antimicrob. Agents Chemother. 2007; 51:2078-2084). Separate kit components, such as covalently-linked DNA microtiter plates and tracer solution (alkaline phosphate (AP)-conjugated anti-BrdU antibody) were obtained from Cavidi Tech, Uppsala, Sweden. In brief, the 96-well microtiter plate used consisted of an 18 base heteropolymeric DNA primer covalently bound to the well. In the RT assay, the DNA primer is bound to a 50-base DNA template at 50 ng/well (190 nM) with a 5′-A12-3′ tail with a 5′-(GTCA)5-3′ repeat (Integrated DNA Technologies, USA). The RT assay reaction mixture (total volume 150 μl/well) contained: Hepes 50 mM, pH 7.3; MgCl2 10 mM; Triton X-100 0.5%; bovine serum albumin 0.1 mg/ml; dATP, dGTP, dCTP and 5-bromo-2′-deoxyuridine-5′-triphosphate (BrdUTP) at 1.0 μM each (where BrdUTP replaces TTP) (Sigma). To obtain ATP primer unblocking reaction in the assay, the ATP (Amersham/GE Health Care) was set to physiological concentration (3.2 mM). However, the ATP was only used in the assay with virus pellets as sample, not merely for primer unblocking reaction but to protect degradation of substrate in the crude sample. Furthermore, the dNTP level including BrdUTP was increased from 1 μM to 4 μM for the assay with the virus pellet samples. Subsequently, in the assay with recombinant purified RT enzyme, no ATP besides 1 μM dNTP was used.
(§2) The reaction was started with the addition of RT either as recombinant or crude virus pellet form in a similar activity range as previous published (Lennerstrand et al., Antimicrob. Agents Chemother. 2007; 51:2078-2084). The RT reaction mixture was incubated at 33° C. for 180 min and terminated by NaOH (to dehybridize the template) and water washing of the plates.

[2] = system: HIVs68Δ-23 (S68del virus isolated at week 23); experiment: 3H-TTP RT incorporation assay, drug susceptibility of in vitro-selected S68del virus in human PBM cells; assay type: cell-based, HIV-1; settings: for EC50 / EC90: HIVs68Δ-23 in human PBM cells, averages of 2-6 independent experiments; for FI EC50 (fold increase in 50% effective concentration) / FI EC90 (fold increase in 90% effective concentration): HIVs68Δ-23 relative to HIVLAI; for resistance of S68del (in words): S68del mutant HIV, summary statement; for HIVs68Δ-23 susceptibility (in words): NNRTI / PI
Experimental: Peripheral blood mononuclear (PBM) cells were separated by ficoll-hypaque (Histopaque 1077: Sigma) density gradient centrifugation from Buffy coats obtained from the American Red Cross (Atlanta, Ga.). Buffy coats were derived from healthy seronegative donors. Cells were activated with 3 μg/ml phytohaemagglutinin A (Sigma-Aldrich, St. Louis, Mo.) in 500 ml of RPMI-1640 (Mediatech Inc., Herndon, Va.) containing 100 ml heat-inactivated fetal bovine serum (Hyclone), 83.3 IU/ml penicillin, 83.3 μg/ml streptomycin, 1.6 mM L-glutamine (Mediatech Inc., Herndon, Va.), for 2-3 days prior to use.
Drug resistance of the S68del virus isolated at week 23 (HIVs68Δ-23) was measured with the 3H-TTP RT incorporation assay in human PBM cells (Schinazi, et al., Antimicrob. Agents Chemother. 1990; 34:1061-1067; Stuyver et al., Antimicrob. Agents Chemother. 2002; 46:3854-60). HIVs68Δ-23 was population sequenced to ensure the dominant population was the deletion at codon 68. […] The susceptibility of the S68del virus to several nucleoside reverse transcriptase inhibitors (NRTI), a non-nucleoside reverse transcriptase inhibitor (NNRTI) and a protease inhibitor (PI) was tested. Fold increases were measured relative to HIVLAI (Table 4, FIGS. 2 and 3). Data are the averages of 2-6 independent experiments.

[3] = target: RT derived from M184V particles (Human immunodeficiency virus type 1 group M subtype B, UniProt P03367, M783V); settings: particle-derived RT, 3.2 mM ATP, FIG. 5
From the text: as §1, with “Subsequently, in the assay with recombinant purified RT enzyme, no ATP besides 1 μM dNTP was used.” left out

[4] = target: T2, Recombinant S68del Reverse Transcriptase (Human immunodeficiency virus type 1 group M subtype B, UniProt P12497, DEL655-655); experiment: Heteropolymeric DNA polymerase RT assay in the absence of ATP, recombinant S68del RT; assay type: biochemical, HIV-1
T2 construct: The amplified PCR product comprising the RT of pNL4-3 was ligated into the linearized pQE60; inferred from the pQE60 vector and the in-frame BglII site of the reverse primer without a stop codon) (C); made in house; host or cells: bacteria
Experimental: (§3) Nucleic acids were separated by gel electrophoresis in a TAE gel and extracted from bands using the Qiagen gel extraction kit. The 4.2 kb band from pNL4-3 containing the HIV-RT encoding sequences was ligated into the linearized pCR2.1, making the construct MC002. Site directed mutagenesis was performed on the MC002 plasmid. Primers used had the S68 codon AGT deleted, thus introducing the S68 deletion into the pNL4-3 RT background.
(§4) To ligate the RT of pNL4-3 comprising the deletion at S68 codon 68 into protein expression vector […] (Invitrogen), MC002 was amplified using forward primer 5′-[…]-3′ (SEQ ID NO: 10) and reverse primer 5′-[…] […]-3′ (SEQ ID NO: 11). The PCR product and pQE60 were digested with Bgl II and Nco I. The digested products were separated by gel electrophoresis nucleic acids in excised gel bands extracted using the Qiagen gel extraction kit. The amplified PCR product comprising the RT of pNL4-3 was ligated into the linearized pQE60. The ligation mix was transformed into chemically competent bacteria (Alpha-select). Plasmid DNA from selected transformants was extracted using a mini-prep kit (Qiagen). Plasmid DNA was sequenced in both directions to confirm the ligation.
as §1, §2

[5] = system: Recombinant S68del Reverse Transcriptase; experiment: as above; assay type: biochemical, HIV-1; settings: Recombinant S68del RT IC50 divided by wild type IC50
Experimental: as §3, §4, §1, §2

[6] = target: T3, Wild type Reverse Transcriptase (Human immunodeficiency virus type 1 group M subtype B, UniProt P12497); experiment: Heteropolymeric DNA polymerase RT assay in the absence of ATP, wild type RT; assay type: biochemical, HIV-1; settings: for IC50: Wild type RT; for Fold-incr: Wild type RT (reference)
T3 construct: The level of resistance to NRTI-TP by the S68del mutants compared to wild type RT
Experimental: The level of resistance to NRTI-TP by the S68del mutants compared to wild type RT was determined as IC50 values of RT activity in the absence of ATP (Table 6). […] The RT activity was linear during the assay time within the substrate range used, and thus steady state kinetics were assumed.

[7] = system: pNL4-3; experiment: Quantitative HIV-1 real-time PCR assay in human PBM cells, pNL4-3 virus; assay type: cell-based; settings: Human immunodeficiency virus 1, PBMC, pNL4-3 in human PBM cells
From the text: The real-time PCR assay for quantifying virus levels in PBM cells serves as a more sensitive method for measuring drug resistance of S68del HIV-1 than other standard methods. SK38 Primer: ATAATCCACCTATCCCAGTAGGAGAAAT (SEQ ID NO: 1) and SK39 Primer: TTTGGTCCTTGTCTTATGTCCAGAATGC (SEQ ID NO: 2) were used in the real-time PCR assay. The presence of amplified product was detected with the SK19 probe: ATCCTGGGATTAAATAAAATAGTAAGAATGTATAG (SEQ ID NO: 3). […] Four concentrations were tested in duplicate for each data point.

[8] = system: S68delpNL4-3; experiment: microbe, parasite or virus in culture; assay type: cell-based, HIV-1
From the text: An intermediate vector with a 4 kb fragment of pNL4-3 ([…]) containing the RT coding region was cloned into the pCR2.1 vector (Invitrogen). […] The HIV-1 fragment from the intermediate vector was digested with Spe I/Age I and subcloned into the full-length pNL4-3 vector. The S68del pNL4-3-based infectious clone was then transfected into HEK293T cells and supernatant was collected after 4 days. The supernatant obtained from HEK293T was used to infect fresh PBM cells, after which the HIV-1 virus pool was passaged to establish an infective pool.
Four concentrations were tested in duplicate for each data point.

[9] = Human immunodeficiency virus 1, PBMC
[10] = Human immunodeficiency virus 1, PBMC, S68del in pNL4-3, human PBM cells, real-time PCR

SMILES: Nc1nc(=O)n([C@@H]2CS[C@H](CO)O2)cc1F (relative stereo) [(−)-FTC, cis-2-hydroxymethyl-5-(5-fluorocytosin-1-yl)-1,3-oxathiolane]
- resistance of S68del RT (in words) [1]: increased resistance
- EC50 [2, 9]: 0.3 µM
- EC90 [2, 9]: 1.1 µM
- resistance of M184V RT (in words) [3]: increased resistance

SMILES: CC(C)OC(=O)OCOP(=O)(CO[C@H](C)Cn1cnc2c(N)ncnc21)OCOC(=O)OC(C)C.O=C(O)/C=C/C(=O)O [TDF, 9-[(R)-2-[[bis[[(isopropoxycarbonyl)oxy]methoxy]phosphinyl]methoxy]propyl]adenine fumarate]
- EC50 [2, 9]: 0.43 µM
- EC90 [2, 9]: 1.6 µM

SMILES: Nc1nc(=O)n(C2C=CC(COP(=O)(O)OP(=O)(O)OP(=O)(O)O)O2)cc1F (stereo not drawn) [DFC-TP]
- fold increase in resistance [1]: 5.6 fold
- IC50 [4]: 1.1 ± 0.2 µM
- Fold-incr [5]: 7.9
- IC50 [6]: 0.14 ± 0.02 µM
- Fold-incr [6]: 1.0

SMILES: Nc1ccn([C@@H]2CS[C@H](CO)O2)c(=O)n1 [3TC, (−)-cis-2-hydroxymethyl-5-(cytosin-1-yl)-1,3-oxathiolane]
- EC50 [2, 9]: 0.88 µM
- EC90 [2, 9]: 3.3 µM

SMILES: Nc1nc(N)c2ncn([C@H]3CO[C@@H](CO)O3)c2n1 [DAPD, (−)-beta-D-2,6-diaminopurine dioxolane]
- FI EC50 (fold increase in 50% effective concentration) [2]: 38.2
- FI EC90 (fold increase in 90% effective concentration) [2]: 32.4
- EC50 [2, 9]: 7.9 µM
- EC90 [2, 9]: 34.5 µM

SMILES: Nc1nc2c(ncn2C2COC(CO)O2)c(=O)[nH]1 (single isomer, unassigned; (-)) [DXG, (−)-9-(beta-D-dioxolane)guanine]
- EC50 [2]: 1.6 µM
- EC90 [2]: 5.1 µM
- FI EC50 (fold increase in 50% effective concentration) [2]: 6.2
- FI EC90 (fold increase in 90% effective concentration) [2]: 3.7

SMILES: OC[C@@H]1CC[C@H](n2cnc3c(O)ncnc32)O1 [DDI, 2′,3′-dideoxyinosine]
- EC50 [2, 9]: 0.63 µM
- EC90 [2, 9]: 4.5 µM
- resistance of S68del (in words) [2]: does not show increased resistance

SMILES: Nc1ccn([C@H]2CC[C@@H](CO)O2)c(=O)n1 [DDC, 2′,3′-dideoxycytidine]
- EC50 [2, 9]: 0.22 µM
- EC90 [2, 9]: 0.93 µM
- resistance of S68del (in words) [2]: does not show increased resistance

SMILES: Nc1nc(=O)n([C@H]2C=C[C@@H](CO)O2)cc1F [DFC, β-D-2′,3′-didehydro-2′,3′-dideoxy-5-fluorocytidine]
- resistance of S68del RT (in words) [1]: increased resistance
- EC50 [2, 9]: 1.1 µM
- EC90 [2, 9]: 3.4 µM
- EC50 [7]: 0.21 µM
- EC90 [7]: 2.3 µM
- EC50 [8, 10]: 3.1 µM
- EC90 [8, 10]: 8.5 µM
- FI50, Fold Increase for S68del in 50% effective concentration ([8]; S68del in pNL4-3 versus pNL4-3): 14.7
- FI90, Fold Increase for S68del in 90% effective concentration ([8]; S68del in pNL4-3 versus pNL4-3): 3.7
- resistance of S68delpNL4-3 (in words) ([8]; real-time PCR, human PBM cells): increased resistance

SMILES: O=C1Nc2ccc(Cl)cc2[C@@](C#CC2CC2)(C(F)(F)F)O1 [Sustiva, (S)-6-chloro-4-cyclopropylethynyl-4-trifluoromethyl-1,4-dihydro-2H-3,1-b-enzoxazin-2-one]
- EC50 [2, 9]: 0.00039 µM
- EC90 [2, 9]: 0.0035 µM
- HIVs68Δ-23 susceptibility (in words) [2]: not significantly changed

SMILES: Cc1cccc(C)c1OCC(=O)N[C@@H](Cc1ccccc1)[C@@H](O)C[C@H](Cc1ccccc1)NC(=O)[C@H](C(C)C)N1CCCNC1=O [Lopinavir]
- EC50 [2, 9]: 0.006 µM
- EC90 [2, 9]: 0.019 µM
- HIVs68Δ-23 susceptibility (in words) [2]: not significantly changed

SMILES: Cc1cn(C2CC(N=[N+]=[N-])C(COP(=O)(O)OP(=O)(O)OP(=O)(O)O)O2)c(=O)[nH]c1=O (stereo not drawn) [AZT-TP]
- fold increase in resistance [1]: 2.5 fold
- IC50 [4]: 0.7 ± 0.1 µM
- Fold-incr [5]: 2.6
- IC50 [6]: 0.27 ± 0.02 µM
- Fold-incr [6]: 1.0

SMILES: Cc1cn([C@H]2C[C@H](N=[N+]=[N-])[C@@H](CO)O2)c(=O)[nH]c1=O [AZT, 3′-azido-3′-deoxythymidine]
- EC50 [2, 9]: 0.0038 µM
- EC90 [2, 9]: 0.014 µM
- resistance of S68del (in words) [2]: does not show increased resistance
- EC50 [7]: 0.13 µM
- EC90 [7]: 0.33 µM

SMILES: Cc1cn([C@H]2C=C[C@@H](CO)O2)c(=O)[nH]c1=O [D4T, 2′,3′-dideoxy-2′,3′-didehydrothymidine]
- EC50 [2, 9]: 0.41 µM
- EC90 [2, 9]: 1.5 µM
- resistance of S68del (in words) [2]: does not show increased resistance

SMILES: Nc1nc(NC2CC2)c2ncn([C@H]3C=C[C@@H](CO)C3)c2n1.O=C(O)CCC(=O)O [Abacavir, (1S,4R)-4-[2-amino-6-(cyclopropyl-amino)-9H-purin-9-yl]-2-cyclopentene-1-methanol succinate]
- EC50 [2, 9]: 3.9 µM
- EC90 [2, 9]: 11.3 µM

SMILES: Nc1nc(=O)n(C2CSC(COP(=O)(O)OP(=O)(O)OP(=O)(O)O)O2)cc1F (single isomer, unassigned; (-)) [(−)FTC-TP]
- fold increase in resistance [1]: 10 fold
- IC50 [4]: 27 ± 2 µM
- Fold-incr [5]: 7.7
- IC50 [6]: 3.5 ± 0.3 µM
- Fold-incr [6]: 1.0
